Assay results reported in US11806342B2, “Diiodohydroxyquinoline for the treatment of clostridium difficile infection” (Purdue Research Foundation, priority 2019, dated 2023).
In brackets after ≈: the same amount, converted by molar mass.

How the values were obtained:
Type in all cases: cell-based, Clostridium difficile
[1] = test system: C. difficile ATCC BAA-1870; assay: Toxin A and B production inhibition, ELISA; settings: for inhibition of total toxin production: 8 hours
Procedure: (§1) To investigate DIHQs toxin production inhibitory activity, toxin A and toxin B levels were measured as described previously. […] An aliquot from each tube was diluted and plated on BHIS agar plates and incubated anaerobically at 37° C. for 24 hours to detect the bacterial count. The total concentration of C. difficile toxin A and B was measured in the supernatant of each tube using enzyme linked immunosorbent assay (ELISA) kit (tgc BIOMICS, Dunwoody, GA) following the manufacturer's instructions. The (OD450-OD620) values, corresponding to the toxin concentration, were measured for DIHQ and control drugs.

C. difficile ATCC 43255 = assay: Toxin A and B production inhibition, ELISA; settings: for inhibition of total toxin production: 8 hours
Procedure: as §1

C. difficile NR-49277 [2] = assay: Toxin A and B production inhibition, ELISA; settings: for inhibition of total toxin production: 8 hours
Procedure: as §1

C. difficile ATCC 9689 = assay: MIC and MBC, broth microdilution; settings: Clostridioides difficile, ATCC9689, C. difficile ATCC 9689; for MBC: read-out: MBC
Procedure: (§2) MIC50 and MIC90 are the minimum concentration of each agent that inhibited growth of 50% and 90% of the tested isolates, respectively. The minimum bactericidal concentration (MBC) of these drugs was tested by plating 5 μL from wells with no growth onto BHIS agar plates. The MBC was categorized as the lowest concentration that reduced bacterial growth by 99.9% MIC50 and MIC90 are the minimum concentration of each agent that inhibited the growth of 50% and 90% of the tested isolates, respectively. The minimum bactericidal concentration (MBC) of these drugs was tested by plating 5 μL from wells with no growth onto BHIS agar plates. The MBC was categorized as the lowest concentration that reduced bacterial growth by 99.9% [29-31].

C. difficile ATCC 700057 = assay: MIC and MBC, broth microdilution; settings: Clostridioides difficile, ATCC700057, C. difficile ATCC 700057
Procedure: as §2

C. difficile P13 = assay: MIC and MBC, broth microdilution; settings: Clostridioides difficile, C. difficile P13; for MBC: read-out: MBC
Procedure: as §2

[3] = test system: C. difficile ATCC BAA-1870; assay: MIC and MBC, broth microdilution; settings: Clostridioides difficile, ATCCBAA1870, C. difficile ATCC BAA-1870
Procedure: as §2

C. difficile NR-49281 = assay: MIC and MBC, broth microdilution; settings: Clostridioides difficile, NR49281, C. difficile NR-49281
Procedure: as §2

C. difficile NR-49284 = assay: MIC and MBC, broth microdilution; settings: Clostridioides difficile, NR49284, C. difficile NR-49284
Procedure: as §2

C. difficile P24 = assay: MIC and MBC, broth microdilution; settings: Clostridioides difficile, C. difficile P24; for MBC: read-out: MBC
Procedure: as §2

C. difficile HM-89 = assay: MIC and MBC, broth microdilution; settings: Clostridioides difficile, HM89, C. difficile HM-89
Procedure: as §2

C. difficile P1 = assay: MIC and MBC, broth microdilution; settings: Clostridioides difficile, C. difficile P1
Procedure: as §2

C. difficile NR-49286 = assay: MIC and MBC, broth microdilution; settings: Clostridioides difficile, NR49286, C. difficile NR-49286
Procedure: as §2

C. difficile P11 = assay: MIC and MBC, broth microdilution; settings: Clostridioides difficile, C. difficile P11; for MBC: read-out: MBC
Procedure: as §2

C. difficile NR-49277 [4] = assay: MIC and MBC, broth microdilution; settings: Clostridioides difficile, NR49277, C. difficile NR-49277
Procedure: as §2

C. difficile ATCC 43598 = assay: MIC and MBC, broth microdilution; settings: Clostridioides difficile, ATCC43598, C. difficile ATCC 43598
Procedure: as §2

C. difficile I1 = assay: MIC and MBC, broth microdilution; settings: Clostridioides difficile, C. difficile I1
Procedure: as §2

C. difficile I4 = assay: MIC and MBC, broth microdilution; settings: Clostridioides difficile, C. difficile I4
Procedure: as §2

C. difficile P2 = assay: MIC and MBC, broth microdilution; settings: Clostridioides difficile, C. difficile P2; for MBC: read-out: MBC
Procedure: as §2

C. difficile NR-49290 = assay: MIC and MBC, broth microdilution; settings: Clostridioides difficile, NR49290, C. difficile NR-49290; for MBC: read-out: MBC
Procedure: as §2

C. difficile I2 = assay: MIC and MBC, broth microdilution; settings: Clostridioides difficile, C. difficile I2
Procedure: as §2

C. difficile P7 = assay: MIC and MBC, broth microdilution; settings: Clostridioides difficile, C. difficile P7
Procedure: as §2

C. difficile P8 = assay: MIC and MBC, broth microdilution; settings: Clostridioides difficile, C. difficile P8
Procedure: as §2

[5] = test system: 38 tested C. difficile strains; assay: MIC and MBC over the panel of clinical isolates (MIC50, MIC90, range); settings: for MIC90: concentration inhibiting growth of 90% of the tested isolates, read-out: MIC90
Procedure: as §2

CCc1c(Cl)c(O)c(Cl)c(O)c1C(=O)O[C@H]1[C@H](O)[C@H](OC)[C@H](OC/C2=C\C=C\C[C@H](O)/C(C)=C/[C@H](CC)[C@@H](O[C@@H]3OC(C)(C)[C@@H](OC(=O)C(C)C)[C@H](O)[C@@H]3O)/C(C)=C/C(C)=C/C[C@@H]([C@@H](C)O)OC2=O)O[C@@H]1C [Fidaxomicin, fidaxomicin]
inhibition of total toxin production ([1]; C. difficile ATCC BAA-1870, ¼×MIC): 31.9% | inhibition of total toxin production ([1]; C. difficile ATCC BAA-1870, ½×MIC): 46.2% | inhibition of total toxin production (C. difficile ATCC 43255; C. difficile ATCC 43255, ¼×MIC): 14.3% | inhibition of total toxin production (C. difficile ATCC 43255; C. difficile ATCC 43255, ½×MIC): 37% | inhibition of total toxin production (C. difficile NR-49277 [2]; C. difficile NR-49277, ¼×MIC): 58.8% | inhibition of total toxin production (C. difficile NR-49277 [2]; C. difficile NR-49277, ½×MIC): 67.4% | MBC (C. difficile ATCC 9689): 0.03 µg/mL (≈ 0.0284 µM) | MIC (C. difficile ATCC 9689; read-out: MIC): 0.03 µg/mL (≈ 0.0284 µM) | MBC (C. difficile ATCC 700057; read-out: MBC): 0.007 µg/mL (≈ 0.00662 µM) | MIC (C. difficile ATCC 700057; read-out: MIC): 0.007 µg/mL (≈ 0.00662 µM) | MBC (C. difficile P13): 0.015 µg/mL (≈ 0.0142 µM) | MIC (C. difficile P13; read-out: MIC): 0.015 µg/mL (≈ 0.0142 µM) | MBC ([3]; read-out: MBC): 0.03 µg/mL (≈ 0.0284 µM) | MIC ([3]; read-out: MIC): 0.03 µg/mL (≈ 0.0284 µM) | MBC (C. difficile NR-49281; read-out: MBC): 0.007 µg/mL (≈ 0.00662 µM) | MIC (C. difficile NR-49281; read-out: MIC): 0.007 µg/mL (≈ 0.00662 µM) | MBC (C. difficile NR-49284; read-out: MBC): 0.015 µg/mL (≈ 0.0142 µM) | MIC (C. difficile NR-49284; read-out: MIC): 0.015 µg/mL (≈ 0.0142 µM) | MBC (C. difficile P24): 0.03 µg/mL (≈ 0.0284 µM) | MIC (C. difficile P24; read-out: MIC): 0.015 µg/mL (≈ 0.0142 µM) | MBC (C. difficile HM-89; read-out: MBC): 0.03 µg/mL (≈ 0.0284 µM) | MIC (C. difficile HM-89; read-out: MIC): 0.03 µg/mL (≈ 0.0284 µM) | MBC (C. difficile P1; read-out: MBC): 0.007 µg/mL (≈ 0.00662 µM) | MIC (C. difficile P1; read-out: MIC): 0.003 µg/mL (≈ 0.00284 µM) | MBC (C. difficile NR-49286; read-out: MBC): 0.015 µg/mL (≈ 0.0142 µM) | MIC (C. difficile NR-49286; read-out: MIC): 0.007 µg/mL (≈ 0.00662 µM) | MBC (C. difficile P11): 0.03 µg/mL (≈ 0.0284 µM) | MIC (C. difficile P11; read-out: MIC): 0.03 µg/mL (≈ 0.0284 µM) | MBC (C. difficile NR-49277 [4]; read-out: MBC): 0.03 µg/mL (≈ 0.0284 µM) | MIC (C. difficile NR-49277 [4]; read-out: MIC): 0.03 µg/mL (≈ 0.0284 µM) | MBC (C. difficile ATCC 43598; read-out: MBC): 0.015 µg/mL (≈ 0.0142 µM) | MIC (C. difficile ATCC 43598; read-out: MIC): 0.015 µg/mL (≈ 0.0142 µM) | MBC (C. difficile I1; read-out: MBC): 0.007 µg/mL (≈ 0.00662 µM) | MIC (C. difficile I1; read-out: MIC): 0.007 µg/mL (≈ 0.00662 µM) | MBC (C. difficile I4; read-out: MBC): 0.015 µg/mL (≈ 0.0142 µM) | MIC (C. difficile I4; read-out: MIC): 0.015 µg/mL (≈ 0.0142 µM) | MBC (C. difficile P2): 0.03 µg/mL (≈ 0.0284 µM) | MIC (C. difficile P2; read-out: MIC): 0.03 µg/mL (≈ 0.0284 µM) | MBC (C. difficile NR-49290): 0.015 µg/mL (≈ 0.0142 µM) | MIC (C. difficile NR-49290; read-out: MIC): 0.015 µg/mL (≈ 0.0142 µM) | MBC (C. difficile I2; read-out: MBC): 0.007 µg/mL (≈ 0.00662 µM) | MIC (C. difficile I2; read-out: MIC): 0.007 µg/mL (≈ 0.00662 µM) | MBC (C. difficile P7; read-out: MBC): 0.06 µg/mL (≈ 0.0567 µM) | MIC (C. difficile P7; read-out: MIC): 0.06 µg/mL (≈ 0.0567 µM) | MBC (C. difficile P8; read-out: MBC): 0.015 µg/mL (≈ 0.0142 µM) | MIC (C. difficile P8; read-out: MIC): 0.015 µg/mL (≈ 0.0142 µM) | MIC50 ([5]; Clostridioides difficile, concentration inhibiting growth of 50% of the tested isolates, read-out: MIC50): 0.015 µg/mL (≈ 0.0142 µM) | MIC90 ([5]; Clostridioides difficile): 0.06 µg/mL (≈ 0.0567 µM)

Cc1ncc([N+](=O)[O-])n1CCO [Metronidazole, metronidazole]
toxin inhibition (in words) ([1]; C. difficile ATCC BAA-1870, ¼×MIC and ½×MIC): No toxin inhibition | toxin inhibition (in words) (C. difficile ATCC 43255; C. difficile ATCC 43255, ¼×MIC and ½×MIC): No toxin inhibition | toxin inhibition (in words) (C. difficile NR-49277 [2]; C. difficile NR-49277, ¼×MIC and ½×MIC): No toxin inhibition | MBC (C. difficile ATCC 9689): 0.25 µg/mL (≈ 1.46 µM) | MBC (C. difficile P13): 0.25 µg/mL (≈ 1.46 µM) | MBC (C. difficile P24): 0.25 µg/mL (≈ 1.46 µM) | MBC (C. difficile P11): 0.25 µg/mL (≈ 1.46 µM) | MBC (C. difficile P2): 0.25 µg/mL (≈ 1.46 µM) | MBC (C. difficile NR-49290): 0.25 µg/mL (≈ 1.46 µM) | MIC90 ([5]; Clostridioides difficile): 0.25 µg/mL (≈ 1.46 µM) | MIC range ([5]; over the 38 tested C. difficile strains): 0.06 to 0.5 µg/mL
